From ChEMBL document CHEMBL4396887, “Five-Membered N-Heterocyclic Scaffolds as Novel Amino Bioisosteres at γ-Aminobutyric Acid (GABA) Type A Receptors and GABA Transporters” (J Med Chem, 2019)
pEC50, pIC50: −log10 of the molar value.

Tests used:
Type in all cases: cell-based
[1] = molecular target: Sodium- and chloride-dependent GABA transporter 1 (Homo sapiens, UniProt P30531); conditions: for pIC50: read-out: IC50; for IC50: read-out: pIC50 (converted)
[2] = molecular target: T1, GABA-A receptor; alpha-1/beta-2/gamma-2 (Homo sapiens, UniProt P14867+P47870+P18507); assay: Agonist activity at recombinant human GABA-A alpha1beta2gamma2S receptor transiently expressed in human tsA201 cells incubated for 30 mins and measured up to 90 secs by FMP dye based FLIPR membrane potential blue assay
T1 sequence (P14867 whole entry): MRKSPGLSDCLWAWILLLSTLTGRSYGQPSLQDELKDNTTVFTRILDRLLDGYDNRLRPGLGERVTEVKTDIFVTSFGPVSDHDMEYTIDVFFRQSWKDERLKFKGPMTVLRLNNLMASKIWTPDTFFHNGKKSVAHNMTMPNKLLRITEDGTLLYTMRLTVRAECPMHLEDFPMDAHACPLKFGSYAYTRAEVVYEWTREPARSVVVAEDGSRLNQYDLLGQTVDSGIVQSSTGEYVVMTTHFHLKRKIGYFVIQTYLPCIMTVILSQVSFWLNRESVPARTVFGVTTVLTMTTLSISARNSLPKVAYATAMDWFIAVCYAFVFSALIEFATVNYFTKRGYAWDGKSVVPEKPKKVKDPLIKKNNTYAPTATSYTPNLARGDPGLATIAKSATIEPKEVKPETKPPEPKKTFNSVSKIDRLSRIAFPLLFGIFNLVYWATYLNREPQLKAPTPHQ
T1 sequence (P47870 whole entry): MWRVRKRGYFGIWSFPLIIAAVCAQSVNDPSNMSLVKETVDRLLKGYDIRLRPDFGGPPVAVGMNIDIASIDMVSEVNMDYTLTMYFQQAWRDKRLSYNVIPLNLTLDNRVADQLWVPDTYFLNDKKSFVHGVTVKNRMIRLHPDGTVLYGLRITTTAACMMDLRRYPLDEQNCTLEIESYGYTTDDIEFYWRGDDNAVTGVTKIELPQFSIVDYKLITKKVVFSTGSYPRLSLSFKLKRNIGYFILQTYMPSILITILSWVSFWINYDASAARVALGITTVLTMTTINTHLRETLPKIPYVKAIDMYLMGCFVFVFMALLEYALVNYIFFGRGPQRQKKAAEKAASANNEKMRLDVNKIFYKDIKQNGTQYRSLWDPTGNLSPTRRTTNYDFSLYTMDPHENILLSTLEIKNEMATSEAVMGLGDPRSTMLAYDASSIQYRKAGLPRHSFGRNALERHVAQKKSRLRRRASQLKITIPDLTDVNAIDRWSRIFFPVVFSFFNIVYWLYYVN
T1 sequence (P18507 whole entry): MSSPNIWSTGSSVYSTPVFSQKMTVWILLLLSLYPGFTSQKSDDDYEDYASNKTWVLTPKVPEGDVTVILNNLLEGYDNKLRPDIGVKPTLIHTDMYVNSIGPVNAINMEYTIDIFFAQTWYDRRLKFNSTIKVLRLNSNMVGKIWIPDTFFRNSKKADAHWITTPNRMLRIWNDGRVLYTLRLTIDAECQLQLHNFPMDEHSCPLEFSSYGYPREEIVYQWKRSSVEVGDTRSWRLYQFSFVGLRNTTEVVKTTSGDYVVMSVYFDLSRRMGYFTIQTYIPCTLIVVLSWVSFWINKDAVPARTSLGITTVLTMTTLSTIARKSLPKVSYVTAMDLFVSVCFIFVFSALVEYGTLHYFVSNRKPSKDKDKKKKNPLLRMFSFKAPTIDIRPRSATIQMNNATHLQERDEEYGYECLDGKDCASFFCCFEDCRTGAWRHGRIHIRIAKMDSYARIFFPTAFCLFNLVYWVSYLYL

[3] = molecular target: T2, Sodium- and chloride-dependent GABA transporter 3 (Homo sapiens, UniProt P48066); assay: Inhibition of human GAT3 expressed in Flp-In CHO cells assessed as reduction in [3H]GABA uptake incubated for 3 mins by liquid scintillation counting method; conditions: for pIC50: read-out: IC50
T2 sequence (P48066 whole entry): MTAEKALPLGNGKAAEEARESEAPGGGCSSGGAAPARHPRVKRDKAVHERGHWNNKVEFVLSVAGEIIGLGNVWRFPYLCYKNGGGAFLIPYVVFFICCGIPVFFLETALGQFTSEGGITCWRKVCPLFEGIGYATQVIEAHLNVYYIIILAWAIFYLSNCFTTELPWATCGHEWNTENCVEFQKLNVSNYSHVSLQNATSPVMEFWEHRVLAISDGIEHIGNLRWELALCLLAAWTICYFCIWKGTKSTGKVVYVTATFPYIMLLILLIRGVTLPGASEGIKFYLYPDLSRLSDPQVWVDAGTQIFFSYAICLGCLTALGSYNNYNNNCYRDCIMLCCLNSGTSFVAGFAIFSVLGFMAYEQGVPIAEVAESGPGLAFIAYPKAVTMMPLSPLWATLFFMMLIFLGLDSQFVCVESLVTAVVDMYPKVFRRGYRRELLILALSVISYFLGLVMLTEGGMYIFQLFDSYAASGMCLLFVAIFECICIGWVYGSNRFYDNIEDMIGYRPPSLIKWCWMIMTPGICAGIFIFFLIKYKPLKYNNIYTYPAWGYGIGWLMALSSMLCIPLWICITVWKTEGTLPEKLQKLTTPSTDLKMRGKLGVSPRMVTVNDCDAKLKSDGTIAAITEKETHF

[4] = molecular target: T3, Sodium- and chloride-dependent GABA transporter 2 (Homo sapiens) (UniProt Q9NSD5); assay: Inhibition of human GAT2 expressed in Flp-In CHO cells assessed as reduction in [3H]GABA uptake at 100 uM incubated for 3 mins by liquid scintillation counting method relative to control
T3 sequence (whole entry): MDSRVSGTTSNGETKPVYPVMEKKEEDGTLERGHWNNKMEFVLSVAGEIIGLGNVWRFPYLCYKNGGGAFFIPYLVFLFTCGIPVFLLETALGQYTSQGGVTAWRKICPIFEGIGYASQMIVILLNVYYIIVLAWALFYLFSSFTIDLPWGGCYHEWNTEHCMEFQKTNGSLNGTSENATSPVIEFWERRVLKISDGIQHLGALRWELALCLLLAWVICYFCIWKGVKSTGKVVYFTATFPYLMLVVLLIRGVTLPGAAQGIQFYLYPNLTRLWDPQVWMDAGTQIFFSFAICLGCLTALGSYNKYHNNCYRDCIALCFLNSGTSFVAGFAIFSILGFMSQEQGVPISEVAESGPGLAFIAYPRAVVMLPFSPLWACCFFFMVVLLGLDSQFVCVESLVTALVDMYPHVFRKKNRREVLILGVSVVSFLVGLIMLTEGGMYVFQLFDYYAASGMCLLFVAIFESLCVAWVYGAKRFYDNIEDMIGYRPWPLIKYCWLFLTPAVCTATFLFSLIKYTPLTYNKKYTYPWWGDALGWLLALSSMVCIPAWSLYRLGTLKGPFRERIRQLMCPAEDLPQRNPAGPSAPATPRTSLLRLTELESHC

[5] = molecular target: Gamma-aminobutyric acid receptor subunit alpha-4/beta-2/gamma-2 (Homo sapiens, UniProt P18507+P47870+P48169); assay: Agonist activity at recombinant human GABA-A alpha4beta2gamma2S receptor transiently expressed in human tsA201 cells incubated for 30 mins and measured up to 90 secs by FMP dye based FLIPR membrane potential blue assay; conditions: read-out: EC50
Gamma-aminobutyric acid receptor subunit alpha-4/beta-2/gamma-2, sequence (P48169 whole entry, one chain of several): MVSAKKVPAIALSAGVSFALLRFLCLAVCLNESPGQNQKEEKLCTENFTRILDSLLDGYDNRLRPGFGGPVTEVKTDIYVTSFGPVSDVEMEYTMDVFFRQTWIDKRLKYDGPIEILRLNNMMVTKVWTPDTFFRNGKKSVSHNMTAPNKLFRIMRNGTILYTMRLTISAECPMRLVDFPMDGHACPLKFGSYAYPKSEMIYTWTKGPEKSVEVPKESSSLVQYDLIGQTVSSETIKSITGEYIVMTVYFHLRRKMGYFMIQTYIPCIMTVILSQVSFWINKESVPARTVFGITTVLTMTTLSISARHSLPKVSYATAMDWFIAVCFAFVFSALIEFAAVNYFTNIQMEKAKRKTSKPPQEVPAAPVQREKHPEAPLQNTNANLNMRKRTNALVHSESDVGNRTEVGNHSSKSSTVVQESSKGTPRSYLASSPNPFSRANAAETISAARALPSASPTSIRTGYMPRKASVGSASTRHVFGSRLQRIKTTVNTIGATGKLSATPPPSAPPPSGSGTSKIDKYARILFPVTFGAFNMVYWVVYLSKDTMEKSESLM

Sodium- and chloride-dependent GABA transporter 1, sequence (P30531 whole entry): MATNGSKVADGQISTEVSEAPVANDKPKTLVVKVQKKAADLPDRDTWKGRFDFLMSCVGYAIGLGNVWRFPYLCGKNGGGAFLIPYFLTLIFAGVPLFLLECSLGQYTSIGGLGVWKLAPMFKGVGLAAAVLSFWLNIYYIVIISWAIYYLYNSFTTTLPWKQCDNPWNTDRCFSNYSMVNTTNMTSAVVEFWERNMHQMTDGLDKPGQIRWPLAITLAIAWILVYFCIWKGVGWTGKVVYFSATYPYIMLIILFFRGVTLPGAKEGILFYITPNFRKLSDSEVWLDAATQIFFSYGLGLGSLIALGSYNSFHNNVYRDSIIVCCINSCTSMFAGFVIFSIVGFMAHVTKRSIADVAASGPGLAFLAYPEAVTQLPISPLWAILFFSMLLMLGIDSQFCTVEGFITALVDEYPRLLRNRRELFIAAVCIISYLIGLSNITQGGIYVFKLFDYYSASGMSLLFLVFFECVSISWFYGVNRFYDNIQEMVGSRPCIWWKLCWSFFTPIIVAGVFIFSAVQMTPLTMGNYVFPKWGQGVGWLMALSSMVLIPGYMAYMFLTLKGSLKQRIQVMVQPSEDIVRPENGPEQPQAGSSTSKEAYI

pIC50 [1]	EC50 [2]	pIC50 [3]	inhibition [4] [%]	pEC50 [5]	IC50 [1] [µM]	IC50 ([3]; read-out: pIC50 (converted)) [µM]	SMILES
< 4.00	Not Active	< 4.00	–	–	–	–	CC(C(=O)O)C1CSC(N)=N1 (stereo in doubt; l-10b)
4.15	–	5.72	> 30	5.10	–	–	O=C(O)CC1CNC=N1 (centres undefined)
3.75	–	3.82	> 30	5.89	158	126	NC1=NC(CC(=O)O)CS1 (centres undefined)
< 4.00	Not Active	< 4.00	> 30	–	–	–	C[C@@H]1SC(N)=N[C@@H]1CC(=O)O (relative stereo)
5.41	Not Active	5.57	> 30	–	3.16	–	O=C(O)C[C@@H]1CCNC1
< 4.00	–	< 4.00	–	4.59	–	–	CC(C(=O)O)C1CSC(N)=N1 (stereo in doubt; l-10a)
5.44	–	5.64	> 30	5.09	2.51	–	O=C(O)C[C@H]1CCNC1
< 4.00	–	< 4.00	> 30	–	–	–	C[C@@H](C(=O)O)[C@@H]1CSC(N)=N1 (relative stereo)
< 4.00	–	< 4.00	> 30	–	–	–	C[C@@H](C(=O)O)[C@H]1CSC(N)=N1 (relative stereo)
4.01	–	4.36	> 30	4.85	–	–	NC1=NC(CC(=O)O)CN1 (centres undefined)
< 4.00	Not Active	< 4.00	> 30	–	–	–	C[C@H]1SC(N)=N[C@@H]1CC(=O)O (relative stereo)
